Data reported in patent US10624905B2, “Corticosteroids for the treatment of joint pain” (Flexion Therapeutics, Inc., priority 2013, dated 2020).
Converted amounts (≈) assume the structure as drawn. “And” between values parts separate entries of the source, which are not always exact repeats. Identical values can stand only once. Like-named read-outs stand apart in the source and are kept apart here.

Legend:
[1] = tested on: HPA axis; conditions: 20 mg intra-articular injection; day 3; transient; cited from earlier work
[2] = cited from earlier work
[3] = TCA in rat plasma, i.v. 50 mg/kg bolus + 23 mg/kg/h infusion, cited from earlier work
[4] = tested on: endogenous cortisol production; assay: Steady-state doses and plasma concentrations for target suppression of endogenous cortisol production; parameters: species or system human; conditions: steady-state HPA axis suppression
Procedure: In this regard, it has been determined that standard doses of familiar corticosteroids, when examined from the viewpoint of steady-state HPA axis suppression (i.e., after desensitization has occurred), provide clinically useful benchmarks. For example, while oral prednisolone given at 20 mg QD produces a 73% cortisol suppression, even 5 mg QD (considered a “low dose”) is associated with a 40% suppression of endogenous cortisol production. […]
As a result of these clinical findings, the dose range to achieve clinically useful analgesia, with minimal or controlled modulation of the HPA axis, at steady state concentrations of various corticosteroids has been determined (Table 2). […]
In addition, with these continuous daily doses of intra-articular corticosteroids, it is possible to determine the related systemic plasma level concentrations (Table 3) that will produce the target cortisol inhibition and not beyond, this while retaining clinically important anti-inflammatory and analgesic activity within the joint. […] The levels calculated in Table 3 were purely hypothetical calculations based on human data with immediate release-level doses from the literature. […] A given level of plasma concentration may actually provide less inhibition that would have been predicted or calculated using the human IR levels from the literature. […]

[5] = tested on: HPA axis (corticosterone levels); assay: Inhibition of the HPA axis (corticosterone levels) in rats, PK-PD analysis; format: in vivo; conditions: rat, PK-PD inhibitory model
[6] = tested on: rat model of osteoarthritis of the knee (PGPS); assay: Rat PGPS model of osteoarthritis of the knee: histopathology of the knees; format: in vivo; conditions: inflammatory milieu
Procedure: Efficacy of single intra-articular (IA) doses of FX006 (TCA in 75:25 PLGA formulation microparticles) and TCA IR (immediate release) was evaluated in a rat model of osteoarthritis of the knee via sensitization and challenge by peptidoglycan polysaccharide (PGPS). The model involves priming the animals with an intra-articular injection of PGPS in the right knee. The following day, any animals with no knee discomfort were eliminated from the test article groups and placed into the baseline group. Two weeks later, knee inflammation was reactivated by a tail vein injection of PGPS, 2.5 hr following IA dosing with FX006 or TCA IR at the doses selected (n=10/group). Differences in weight-bearing and gait (as a measure of joint pain experienced by the animals), histopathology, plasma PK etc. were evaluated.

Question: What does the source list for `CC(C)(C)CC(=O)OCC(=O)[C@@]12OC(C)(C)O[C@@H]1C[C@H]1[C@@H]3CCC4=CC(=O)C=C[C@]4(C)[C@@]3(F)[C@@H](O)C[C@@]12C` [triamcinolone hexacetonide]?
Answer: HPA-axis suppression [1]: 75%; plasma levels ([2]; 20 mg intra-articular injection, day 3): 3 to 4 ng/mL

Question: Which results are given for Triamcinolone Acetonide Phosphate?
Answer: CL ([3]; Mean ± SD): 15.6 ± 3.13 mL/min/kg; T1/2β ([3]; Mean ± SD): 2.71 ± 1.09 h; Vc ([3]; Mean ± SD): 0.944 ± 0.314 L/kg; fu ([3]; Mean ± SD): 0.093 ± 0.015; k21 ([3]; Mean ± SD): 0.937 ± 0.261 h^1; CL ([3]; individual rats 1-3): 19.2 mL/min/kg and 13.2 mL/min/kg and 14.5 mL/min/kg; T1/2β ([3]; individual rats 1-3): 1.55 h and 3.71 h and 2.87 h; Vc ([3]; individual rats 1-3): 0.684 L/kg and 0.856 L/kg and 1.29 L/kg; fu ([3]; individual rats 1-3): 0.084 and 0.110 and 0.085; k12 ([3]; individual rats 1-3): 1.64 h^1 and 1.79 h^1 and 1.59 h^1; k21 ([3]; individual rats 1-3): 1.04 h^1 and 0.640 h^1 and 1.13 h^1

Question: With `C[C@]12C=CC(=O)C=C1CC[C@@H]1[C@@H]2[C@@H](O)C[C@@]2(C)[C@H]1CC[C@]2(O)C(=O)CO` [prednisolone, 11β,17,21-trihydroxypregna-1,4-diene-3,20-dione] as the molecule, how does the “suppression of endogenous cortisol production” value ([4]; oral 5 mg QD) read?
Answer: Its value is 40%.

Question: And the cortisol suppression ([4]; oral 20 mg QD)?
Answer: Its cortisol suppression is 73%.

Question: With `CC1(C)O[C@@H]2C[C@H]3[C@@H]4CCC5=CC(=O)C=C[C@]5(C)[C@@]4(F)[C@@H](O)C[C@]3(C)[C@]2(C(=O)CO)O1` [triamcinolone acetonide, 9α-Fluoro-11β,16α,17α,21-tetrahydroxy-1,4-pregnadiene-3,20-dione 16,17-acetonide] as the molecule, how does the “systemic TCA level at which Emax of corticosterone inhibition was achieved” value [5] read?
Answer: Its value is 50 to 80 ng/mL.

Question: What about the IC50 ([5]; read-out: IC50 of corticosterone inhibition versus systemic TCA levels) of the same molecule?
Answer: The IC50 was ~1 ng/mL (≈ 2.3 nM).

Question: And the effect on cartilage [6]?
Answer: The effect on cartilage was “no deleterious effect on cartilage”.

Question: What about the “contribution of the immediate release component to the plasma concentration” value ([2]; 40 mg immediate release, intra-articular, by day 12) of the same molecule?
Answer: The value was “less than 0.1 ng/ml”.

Question: What about the peak plasma concentration ([2]; 40 mg immediate release, intra-articular, day 1) of the same molecule?
Answer: Its peak plasma concentration is “approximately 10 ng/ml”.
